{"source": "patent US20250289814A1", "about": "“COMPOUNDS AS PARP1 INHIBITIORS” (NINGBO NEWBAY TECHNOLOGY DEVELOPMENT CO., LTD., priority 2022, published 2025)", "data": [{"tested_on": "DLD1-BRCA2−/− cells", "test": "Cell proliferation assay in DLD1-BRCA2−/− cell lines (CellTiter-Glo, 7 days)", "format": "cell-based", "details": "not given", "experimental": "(§1) BRCA2 (−/−) cells cultured in RPMI 1640+10% FBS were harvested and diluted to a density of 1×10^4 cells/mL and 2×10^4 cells/mL, respectively. Cells (40 μL/well) were seeded into 384-well cell culture plates. Plates were covered and incubated at 37° C., 5% CO2 overnight prior to the addition of test compounds or vehicle. The plates were then incubated at 37° C., 5% CO2 for 7 days. On day 8, the plates were removed from incubator and equilibrated at room temperature for 15 minutes. CellTiter-Glo (40 μL, at 1:1 to culture medium) is added into each well and the plates were placed at room temperature for 30 min. Luminescence was measured using an Envision plate reader. The resultant data were analysed as follows; where LC is culture medium without cells:\n(§2) % inhibition values for different test compound concentrations were calculated and fitted to a four parameter logistic plot in order to determine the IC50 value using XLfit", "units": {"IC50": "nM"}, "values": [{"smiles": "CCc1cc2ncc(CN3CC(Oc4ccc(C(=O)NC)nc4)C[C@@H]3C)cc2[nH]c1=O", "note": "(single isomer, unassigned) [Compound 23, 5-(((enantiomer 1 or 2, 5S)-1-((7-ethyl-6-oxo-5,6-dihydro-1,5-naphthyridin-3-yl)methyl)-5-methylpyrrolidin-3-yl)oxy)-N-methylpicolinamide]", "IC50": "> 1000"}, {"smiles": "CCc1cc2ncc(CN3CC[C@@H](Cc4ccc(C(=O)NC)nc4)C3)cc2[nH]c1=O", "note": "(single isomer, unassigned) [Compound 26, (enantiomer 1 or 2)-5-((1-((7-ethyl-6-oxo-5,6-dihydro-1,5-naphthyridin-3-yl)methyl)pyrrolidin-3-yl)methyl)-N-methylpicolinamide]", "IC50": 192}, {"smiles": "CCc1cc2ncc(CN3CCC[C@@H](Oc4ccc(C(=O)NC)nc4)C3)cc2[nH]c1=O", "note": "(single isomer, unassigned) [Compound 33, (enantiomer 1 or 2)-5-((1-((7-ethyl-6-oxo-5,6-dihydro-1,5-naphthyridin-3-yl)methyl)piperidin-3-yl)oxy)-N-methylpicolinamide]", "IC50": "> 1000"}, {"smiles": "CCc1cc2ncc(CN3CC[C@@H](N(C)c4ccc(C(=O)NC)nc4)C3)cc2[nH]c1=O", "note": "(single isomer, unassigned; enantiomer 1) [Compound 16, (enantiomer 1)-5-((1-((7-ethyl-6-oxo-5,6-dihydro-1,5-naphthyridin-3-yl)methyl)pyrrolidin-3-yl)(methyl)amino)-N-methylpicolinamide]", "IC50": "> 1000"}]}, {"tested_on": "DLD1-BRCA2−/− cells", "test": "Cell proliferation assay in DLD1-BRCA2−/− cell lines (CellTiter-Glo, 7 days)", "format": "cell-based", "details": "Homo sapiens, DLD-1, 168 h", "experimental": "as §1, §2", "units": {"IC50": "nM"}, "values": [{"smiles": "CCc1cc2ncc(CN3CC(Oc4ccc(C(=O)NC)nc4)C[C@@H]3C)cc2[nH]c1=O", "note": "(single isomer, unassigned) [Compound 22, 5-(((enantiomer 1 or 2, 5S)-1-((7-ethyl-6-oxo-5,6-dihydro-1,5-naphthyridin-3-yl)methyl)-5-methylpyrrolidin-3-yl)oxy)-N-methylpicolinamide]", "IC50": "> 1000"}, {"smiles": "CCc1cc2ncc(CN3CC[C@@H](Cc4ccc(C(=O)NC)nc4)C3)cc2[nH]c1=O", "note": "(single isomer, unassigned) [Compound 25, (enantiomer 1 or 2)-5-((1-((7-ethyl-6-oxo-5,6-dihydro-1,5-naphthyridin-3-yl)methyl)pyrrolidin-3-yl)methyl)-N-methylpicolinamide]", "IC50": 300}, {"smiles": "CCc1cc2ncc(CN3CCC[C@@H](Oc4ccc(C(=O)NC)nc4)C3)cc2[nH]c1=O", "note": "(single isomer, unassigned) [Compound 32, (enantiomer 1 or 2)-5-((1-((7-ethyl-6-oxo-5,6-dihydro-1,5-naphthyridin-3-yl)methyl)piperidin-3-yl)oxy)-N-methylpicolinamide]", "IC50": "> 1000"}, {"smiles": "CCc1cc2ncc(CN3CC(Oc4ccc(C(=O)NC)nc4)C3C)cc2[nH]c1=O", "note": "(stereo not drawn) [Compound 18, 5-((1-((7-ethyl-6-oxo-5,6-dihydro-1,5-naphthyridin-3-yl)methyl)-2-methylazetidin-3-yl)oxy)-N-methylpicolinamide]", "IC50": "> 1000"}, {"smiles": "CCc1cc2ncc(CN3CC[C@@H](Oc4cnc(C(=O)NC)c(F)c4)C3)cc2[nH]c1=O", "note": "[Compound 27, (R)-5-((1-((7-ethyl-6-oxo-5,6-dihydro-1,5-naphthyridin-3-yl)methyl)pyrrolidin-3-yl)oxy)-3-fluoro-N-methylpicolinamide]", "IC50": 356}, {"smiles": "CCc1cc2ncc(CN3CCCN(c4ccc(C(=O)NC)nc4)CC3)cc2[nH]c1=O", "note": "[Compound 34, 5-(4-((7-ethyl-6-oxo-5,6-dihydro-1,5-naphthyridin-3-yl)methyl)-1,4-diazepan-1-yl)-N-methylpicolinamide]", "IC50": "> 1000"}, {"smiles": "CNC(=O)c1ccc(N2CCCN(Cc3cnc4cc(C)c(=O)[nH]c4c3)CC2)cn1", "note": "[Compound 35, N-methyl-5-(4-((7-methyl-6-oxo-5,6-dihydro-1,5-naphthyridin-3-yl)methyl)-1,4-diazepan-1-yl) picolinamide]", "IC50": "> 1000"}, {"smiles": "CCc1cc2ncc(CN3C4CC3CN(c3ccc(C(=O)NC)nc3)C4)cc2[nH]c1=O", "note": "[Compound 36, 5-(6-((7-ethyl-6-oxo-5,6-dihydro-1,5-naphthyridin-3-yl)methyl)-3,6-diazabicyclo [3.1.1]heptan-3-yl)-N-methylpicolinamide]", "IC50": "> 1000"}]}]}
